Results as given in PMC12005787, “Synthetic Lethality of SHP2 and XIAP Suppresses Proliferation and Metastasis in KRAS‐mutant Nonsmall Cell Lung Cancer” (Advanced Science, 2025).
Like-named read-outs stand apart in the source and are kept apart here.

How the values were obtained:
His‐SHP2 = target: T1, His‐SHP2 (Homo sapiens, UniProt Q06124); assay: Isothermal titration calorimetry; type: binding; details: read-out: KD value (ITC)
T1 construct: His; made in house; host or cells: E. coli
Protocol: The purified His‐ΔSHP2, His‐SHP2, or His‐ΔSHP2^K325A proteins were dialyzed overnight in dialysis buffer (20 mM HEPES, 0.15 M NaCl, 1 mM TCEP, 10% glycerol, pH 7.5). The protein concentration was determined using the BCA Protein Assay Kit, and the purity of the proteins was detected by Coomassie Brilliant Blue staining. ITC experiments were performed when the protein concentration was higher than 2 mg mL^−1 and the purity was greater than 90%. The instrument (Malvern Instruments, USA) was considered to be functioning optimally for compound and protein titration experiments when the DP value was < 0.05 µcal s^−1 by the water droplet experiment. After the sample cell was cleaned twice with protein dialysis buffer, a protein sample (300 µL) was loaded to the sample cell, an equal amount of ultrapure water was added to the reference cell, and the compound solution dissolved with the same dialysis buffer was put into the corresponding cell, in which the protein‐compound molar ratio was 1:10–1:20. The parameters were adjusted based on the curve‐fitting results to determine the optimal binding concentration gradient. Based on the exothermic changes in the reaction, the entropy increase and enthalpy change were analyzed using software fitting to obtain parameters such as the binding coefficient and affinity constant between the small molecules and proteins.

A549 cells = assay: Cell viability assay (CCK-8); type: cell-based; details: Homo sapiens
Protocol: (§1) supplies are listed in Supplementary Table S5. […]
(§2) KRAS-mutant and wild-type cells are listed in Supplementary Table S7.
(§3) For the adherent cell viability assay, cells in the logarithmic growth phase were seeded in 96-well culture plates at a density of 5×103 well-1 and incubated overnight. Diluted compounds or DMSO were added, or specific treatments were incubated at 37 °C and 5% CO2 for 24 h or 48 h. Cell viability was determined using CCK-8 or CellLightTM Cell Viability Assay Kit, according to the manufacturer's protocol. The luminescence signals of the treated samples were normalized to those of the DMSO group. […]

ACHN cells = assay: Cell viability assay (CCK-8); type: cell-based; details: Homo sapiens
Protocol: as §1, §2, §3

HCC44 cells = assay: Cell viability assay (CCK-8); type: cell-based; details: Homo sapiens
Protocol: as §1, §2, §3

HCT15 cells = assay: Cell viability assay (CCK-8); type: cell-based; details: Homo sapiens, HCT-15
Protocol: as §1, §2, §3

HeLa cells = assay: Cell viability assay (CCK-8); type: cell-based; details: Homo sapiens
Protocol: as §1, §2, §3

Lewis/Luc1 cells = assay: Cell viability assay (CCK-8); type: cell-based
Protocol: as §1, §2, §3

MDA-MB-231 cells = assay: Cell viability assay (CCK-8); type: cell-based; details: Homo sapiens
Protocol: as §1, §2, §3

NCI-H1155 cells = assay: Cell viability assay (CCK-8); type: cell-based; details: Homo sapiens
Protocol: as §1, §2, §3

NCI-H1299 cells = assay: Cell viability assay (CCK-8); type: cell-based; details: Homo sapiens
Protocol: as §1, §2, §3

NCI-H1975 cells = assay: Cell viability assay (CCK-8); type: cell-based; details: Homo sapiens, NCI-H1975, 24 h, NCI-H1975, RAS-wild type, EGFR L858R/T790M
Protocol: as §1, §2, §3

NCI-H2122 cells = assay: Cell viability assay (CCK-8); type: cell-based; details: Homo sapiens
Protocol: as §1, §2, §3

SW1417 cells = assay: Cell viability assay (CCK-8); type: cell-based; details: Homo sapiens
Protocol: as §1, §2, §3

[1] = tested on: RAS wild‐type and mutant cells; assay: Colony formation assay; type: cell-based
Protocol: as §1
Colony formation experiment
Cells in the logarithmic growth phase were digested thoroughly into a single dispersed state and inoculated into six-well plates at a density of 100 well-1. Subsequently, different concentrations of the drugs were added for 14 d, consecutively, and the solution was changed every 2 d. Next, the cells were fixed with 4% formaldehyde, stained with 0.1% crystal violet, and the number of clones was counted using an inverted microscope. […]

[2] = tested on: MIG‐6 and SPRY2 in NCI‐H2122 cells; assay: MIG-6 and SPRY2 protein expression (western blotting); type: cell-based, human; details: 24 h
Protocol: Transwell, and the subsequent experiments were performed as described in Cell migration […]
After given treatment, cells were lysed by ice bath with radio-immunoprecipitation assay (RIPA) buffer containing 1% phenylmethylsulphonyl fluoride (PMSF), and the supernatant was collected by centrifugation, and the protein concentration was subsequently determined using a BCA Protein Assay Kit. Depending on the molecular weight of the proteins, different concentrations of sodium dodecyl-sulfate polyacrylamide gel electrophoresis (SDS-PAGE) separator gels were prepared for protein electrophoresis. Equal amounts of proteins were sampled and subjected to SDS-PAGE gel electrophoresis; at the end of electrophoresis, the proteins were transferred to nitrocellulose (NC) membranes. The NC membrane was blocked with 5% skim milk and covered with a specific primary antibody overnight at 4 °C, in which the primary antibody was diluted at a ratio of 1:500–1:5000. The NC membrane was […]

T1 sequence (Q06124 whole entry): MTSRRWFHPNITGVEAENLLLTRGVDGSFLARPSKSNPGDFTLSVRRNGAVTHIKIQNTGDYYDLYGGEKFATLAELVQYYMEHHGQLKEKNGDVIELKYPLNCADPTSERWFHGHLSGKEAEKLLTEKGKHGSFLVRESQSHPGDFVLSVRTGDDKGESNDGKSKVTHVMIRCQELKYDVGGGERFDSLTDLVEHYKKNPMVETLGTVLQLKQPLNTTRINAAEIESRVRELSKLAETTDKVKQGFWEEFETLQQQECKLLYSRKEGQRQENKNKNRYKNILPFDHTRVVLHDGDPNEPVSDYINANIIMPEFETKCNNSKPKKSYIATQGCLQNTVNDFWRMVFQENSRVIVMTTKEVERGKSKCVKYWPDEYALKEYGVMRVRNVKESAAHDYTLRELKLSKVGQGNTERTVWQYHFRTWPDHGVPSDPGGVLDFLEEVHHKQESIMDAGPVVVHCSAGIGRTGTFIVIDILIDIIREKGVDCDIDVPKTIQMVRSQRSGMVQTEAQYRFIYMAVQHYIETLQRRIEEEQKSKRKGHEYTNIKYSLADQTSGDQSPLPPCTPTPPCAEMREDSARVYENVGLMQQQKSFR

`CCCCCCCCCCCC1=C(O)C(=O)C=C(O)C1=O` [Embelin] was tested, and the Kd (His‐SHP2) was 0.0229 µM, the IC50 (A549 cells; A549, 48 h, read-out: IC50 at 48 h) was 6.5 ± 0.9 µM and the IC50 (A549 cells; A549, KRAS G12S, 24 h, read-out: IC50 at 24 h) was 7.9 µM. The IC50 (ACHN cells; 48 h, read-out: IC50 at 48 h) was 10.3 ± 0.7 µM, the IC50 (ACHN cells; HRAS, 24 h, read-out: IC50 at 24 h) was 27.4 ± 0.3 µM and the IC50 (HCC44 cells; HCC44, 48 h, read-out: IC50 at 48 h) was 6.52 ± 0.4 µM. The IC50 (HCC44 cells; HCC44, KRAS G12C, 24 h, read-out: IC50 at 24 h) was 27.3 ± 0.44 µM, the IC50 (HCT15 cells; HCT15, 48 h, read-out: IC50 at 48 h) was 9.95 ± 0.38 µM and the IC50 (HCT15 cells; HCT15, KRAS G13D, 24 h, read-out: IC50 at 24 h) was 12.8 ± 0.43 µM. For the same compound, the IC50 (HeLa cells; 48 h, read-out: IC50 at 48 h) was 13.4 ± 0.6 µM, the IC50 (HeLa cells; RAS-wild type, 24 h, read-out: IC50 at 24 h) was 16.5 ± 0.2 µM and the IC50 (Lewis/Luc1 cells; Lewis/Luc1, 48 h, read-out: IC50 at 48 h) was 18.2 ± 0.9 µM. It also gave an IC50 (Lewis/Luc1 cells; Lewis/Luc1, RAS-wild type, 24 h, read-out: IC50 at 24 h) of 20.6 ± 0.6 µM, an IC50 (MDA-MB-231 cells; MDA-MB-231, 48 h, read-out: IC50 at 48 h) of 11.5 ± 0.7 µM and an IC50 (MDA-MB-231 cells; MDA-MB-231, KRAS G13D, 24 h, read-out: IC50 at 24 h) of 13.6 ± 0.2 µM. The IC50 (NCI-H1155 cells; NCI-H1155, 48 h, read-out: IC50 at 48 h) was 7.07 ± 0.45 µM, the IC50 (NCI-H1155 cells; NCI-H1155, KRAS Q61H, 24 h, read-out: IC50 at 24 h) was 16.1 ± 0.36 µM and the IC50 (NCI-H1299 cells; NCI-H1299, 48 h, read-out: IC50 at 48 h) was 13.1 ± 0.6 µM. For the same compound, the IC50 (NCI-H1299 cells; NCI-H1299, NRAS, 24 h, read-out: IC50 at 24 h) was 19.6 ± 1 µM, the IC50 (NCI-H1975 cells) was 7.4 ± 0.83 µM and the IC50 (NCI-H2122 cells; NCI-H2122, 48 h, read-out: IC50 at 48 h) was 4.03 ± 0.1 µM. It also gave an IC50 (NCI-H2122 cells; NCI-H2122, KRAS G12C, 24 h, read-out: IC50 at 24 h) of 4.9 ± 0.1 µM, an IC50 (SW1417 cells; SW1417, 48 h, read-out: IC50 at 48 h) of 14.9 ± 0.34 µM and an IC50 (SW1417 cells; SW1417, RAS-wild type, 24 h, read-out: IC50 at 24 h) of 65.39 ± 0.36 µM. For the same compound, the colony formation [1] was “cytotoxic effects on both RAS” and the “expression of MIG‐6 and SPRY2” value [2] was “significantly promoted the expression”.
